These are literature values, as cited in patent publication US20260028295A1, “COMPOSITIONS THAT CONTAIN SUSPENDED DICYANDIAMIDE, AND RELATED METHODS” (Keystone Specialty Chemicals LLC, priority 2022, published 2026).

For the data set the following is noted: 25 degrees Celsius.

For `N#CNC(=N)N` [Dicyandiamide], the solubility in water is given as 4.13 grams per 100 milliliter.
